Assay results published in patent publication US12258327B2, “5-membered heteroaryl-containing aminopyridine compounds as EGFR inhibitors” (YUHAN CORPORATION, priority 2021, dated 2025).
Where two headings read alike, the source gives them in different places.

What was measured:
[1] = biological target: EGFR L858R/T790M/C797S (Homo sapiens, UniProt P00533, C797S/L858R/T790M); assay: Biochemical EGFR kinase assay (Lance Ultra TR-FRET), triple mutant L858R/T790M/C797S
Procedure, shortened: (§1)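 Kinase activity is measured by TR-FRET phosphopeptide detection. Compounds span 0.003 μM to 10 μM; the 1 h reaction at room temperature is quenched with EDTA, then labelled antibody (2 nM) is incubated 60 min before reading.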

[2] = biological target: EGFR wildtype (WT) (Homo sapiens, UniProt P00533); assay: Biochemical EGFR kinase assay (Lance Ultra TR-FRET), wildtype
Chain of EGFR wildtype (WT) (P00533 25-1210): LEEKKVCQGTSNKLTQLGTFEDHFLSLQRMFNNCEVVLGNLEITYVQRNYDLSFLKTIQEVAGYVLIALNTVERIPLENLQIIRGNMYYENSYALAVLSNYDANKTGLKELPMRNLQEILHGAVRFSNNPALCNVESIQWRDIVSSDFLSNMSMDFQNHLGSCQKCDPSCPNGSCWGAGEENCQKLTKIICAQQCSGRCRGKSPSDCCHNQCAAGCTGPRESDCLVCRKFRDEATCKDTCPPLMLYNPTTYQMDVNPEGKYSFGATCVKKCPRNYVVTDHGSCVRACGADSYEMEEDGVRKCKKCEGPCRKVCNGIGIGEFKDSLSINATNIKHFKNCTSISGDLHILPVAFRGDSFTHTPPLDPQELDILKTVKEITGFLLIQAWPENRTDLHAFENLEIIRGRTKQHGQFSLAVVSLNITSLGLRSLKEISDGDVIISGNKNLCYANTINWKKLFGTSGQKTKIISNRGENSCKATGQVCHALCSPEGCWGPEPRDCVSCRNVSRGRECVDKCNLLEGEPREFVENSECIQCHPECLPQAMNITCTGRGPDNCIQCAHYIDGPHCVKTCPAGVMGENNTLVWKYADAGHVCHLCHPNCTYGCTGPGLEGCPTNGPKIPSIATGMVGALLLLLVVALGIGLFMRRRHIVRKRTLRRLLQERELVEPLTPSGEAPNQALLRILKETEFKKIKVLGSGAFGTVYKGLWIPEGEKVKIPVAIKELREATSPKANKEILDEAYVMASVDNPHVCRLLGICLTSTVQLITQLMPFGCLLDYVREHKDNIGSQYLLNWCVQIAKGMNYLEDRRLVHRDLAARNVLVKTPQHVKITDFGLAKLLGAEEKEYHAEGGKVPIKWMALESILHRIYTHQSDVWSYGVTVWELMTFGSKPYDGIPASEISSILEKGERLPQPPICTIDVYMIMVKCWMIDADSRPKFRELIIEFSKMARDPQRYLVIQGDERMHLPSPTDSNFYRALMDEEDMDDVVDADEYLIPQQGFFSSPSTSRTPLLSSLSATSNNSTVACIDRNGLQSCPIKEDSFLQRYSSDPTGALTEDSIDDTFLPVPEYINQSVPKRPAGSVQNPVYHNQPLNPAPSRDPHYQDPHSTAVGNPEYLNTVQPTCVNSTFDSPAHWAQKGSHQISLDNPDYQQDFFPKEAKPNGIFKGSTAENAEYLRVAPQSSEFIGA
Procedure, shortened: as §1

[3] = biological target: EGFR del19/C797S (Homo sapiens, UniProt P00533, C797S/DEL746-750); assay: Biochemical EGFR kinase assay (Lance Ultra TR-FRET), double mutant del19/C797S
Chain of EGFR del19/C797S (P00533 with tags, fused parts or gaps DEL746-750/C797S): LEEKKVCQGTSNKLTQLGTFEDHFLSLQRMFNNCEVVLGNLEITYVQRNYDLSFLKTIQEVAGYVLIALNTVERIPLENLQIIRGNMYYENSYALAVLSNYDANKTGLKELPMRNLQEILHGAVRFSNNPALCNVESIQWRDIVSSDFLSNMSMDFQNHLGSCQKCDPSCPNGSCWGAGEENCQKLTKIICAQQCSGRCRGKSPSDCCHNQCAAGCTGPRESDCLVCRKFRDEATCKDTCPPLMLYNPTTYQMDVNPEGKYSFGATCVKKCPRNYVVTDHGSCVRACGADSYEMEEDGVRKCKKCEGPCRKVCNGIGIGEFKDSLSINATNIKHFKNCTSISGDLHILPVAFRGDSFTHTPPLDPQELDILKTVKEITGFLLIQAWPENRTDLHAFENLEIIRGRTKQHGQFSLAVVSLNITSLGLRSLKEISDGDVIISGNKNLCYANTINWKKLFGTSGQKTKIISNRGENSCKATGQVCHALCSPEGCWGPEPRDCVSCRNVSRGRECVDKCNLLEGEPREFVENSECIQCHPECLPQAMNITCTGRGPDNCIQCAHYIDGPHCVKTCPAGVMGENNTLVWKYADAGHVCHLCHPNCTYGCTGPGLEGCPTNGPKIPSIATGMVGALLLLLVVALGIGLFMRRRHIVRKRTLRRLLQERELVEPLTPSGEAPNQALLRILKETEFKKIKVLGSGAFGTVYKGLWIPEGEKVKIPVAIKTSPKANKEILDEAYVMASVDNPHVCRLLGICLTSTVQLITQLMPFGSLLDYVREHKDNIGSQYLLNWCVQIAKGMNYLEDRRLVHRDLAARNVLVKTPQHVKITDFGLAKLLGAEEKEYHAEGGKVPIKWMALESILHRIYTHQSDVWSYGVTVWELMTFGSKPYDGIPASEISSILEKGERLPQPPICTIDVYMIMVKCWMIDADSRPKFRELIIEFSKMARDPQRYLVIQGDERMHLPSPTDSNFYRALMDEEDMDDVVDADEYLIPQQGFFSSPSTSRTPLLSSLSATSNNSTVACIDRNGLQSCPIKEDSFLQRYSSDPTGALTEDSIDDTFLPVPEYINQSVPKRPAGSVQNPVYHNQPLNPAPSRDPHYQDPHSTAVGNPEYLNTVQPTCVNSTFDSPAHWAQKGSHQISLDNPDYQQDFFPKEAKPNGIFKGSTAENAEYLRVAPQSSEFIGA
Procedure, shortened: as §1

[4] = biological target: EGFR L858R/C797S (Homo sapiens, UniProt P00533, C797S/L858R); assay: Biochemical EGFR kinase assay (Lance Ultra TR-FRET), double mutant L858R/C797S
Procedure, shortened: as §1

[5] = biological target: EGFR del19/T790M/C797S (Homo sapiens, UniProt P00533, C797S/DEL746-750/T790M); assay: Biochemical EGFR kinase assay (Lance Ultra TR-FRET), triple mutant del19/T790M/C797S
Chain of EGFR del19/T790M/C797S (P00533 with tags, fused parts or gaps DEL746-750/T790M/C797S): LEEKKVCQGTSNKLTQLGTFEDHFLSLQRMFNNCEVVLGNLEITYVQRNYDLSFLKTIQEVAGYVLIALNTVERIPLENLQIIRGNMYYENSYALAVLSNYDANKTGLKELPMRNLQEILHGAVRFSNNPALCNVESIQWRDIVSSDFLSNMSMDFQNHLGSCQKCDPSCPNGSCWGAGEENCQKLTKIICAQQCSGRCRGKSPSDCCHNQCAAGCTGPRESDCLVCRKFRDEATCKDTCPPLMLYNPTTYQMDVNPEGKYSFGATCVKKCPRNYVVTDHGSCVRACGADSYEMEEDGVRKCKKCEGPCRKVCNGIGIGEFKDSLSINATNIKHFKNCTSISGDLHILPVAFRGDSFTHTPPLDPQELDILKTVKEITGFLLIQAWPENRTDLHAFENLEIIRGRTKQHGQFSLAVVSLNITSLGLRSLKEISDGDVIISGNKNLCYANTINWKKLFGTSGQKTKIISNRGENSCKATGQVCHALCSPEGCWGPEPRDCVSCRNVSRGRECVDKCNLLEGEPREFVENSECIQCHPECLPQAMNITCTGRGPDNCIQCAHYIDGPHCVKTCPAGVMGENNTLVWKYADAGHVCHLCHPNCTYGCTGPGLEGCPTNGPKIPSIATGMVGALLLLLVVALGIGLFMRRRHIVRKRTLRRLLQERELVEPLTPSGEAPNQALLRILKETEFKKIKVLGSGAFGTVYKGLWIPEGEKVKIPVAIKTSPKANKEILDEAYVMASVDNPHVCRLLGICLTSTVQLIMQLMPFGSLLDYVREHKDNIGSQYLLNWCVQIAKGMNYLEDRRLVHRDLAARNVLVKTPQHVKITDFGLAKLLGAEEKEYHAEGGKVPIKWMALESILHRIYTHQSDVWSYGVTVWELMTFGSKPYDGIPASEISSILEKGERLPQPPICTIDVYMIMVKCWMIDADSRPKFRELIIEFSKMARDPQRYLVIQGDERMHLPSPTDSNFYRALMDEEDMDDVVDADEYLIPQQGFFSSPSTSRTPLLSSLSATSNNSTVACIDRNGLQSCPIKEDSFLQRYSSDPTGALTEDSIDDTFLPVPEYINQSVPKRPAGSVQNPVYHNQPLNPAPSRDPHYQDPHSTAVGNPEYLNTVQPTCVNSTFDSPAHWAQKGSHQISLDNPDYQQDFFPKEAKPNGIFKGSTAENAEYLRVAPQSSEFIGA
Procedure, shortened: as §1

[6] = Km ATP, read-out: IC50 L858R/T790M/C797S (nM) Km ATP
[7] = Km ATP, read-out: IC50 WT (nM) Km ATP
[8] = Km ATP, read-out: IC50 del19/C797S (nM) Km ATP
[9] = Km ATP, read-out: IC50 L858R/C797S (nM) Km ATP
[10] = Km ATP, read-out: IC50 del19/T790M/C797S (nM) Km ATP
[11] = IC50 L858R/T790M/C797S (nM) 100 μM ATP, 100 μM ATP
[12] = IC50 WT (nM) 100 μM ATP, 100 μM ATP
[13] = IC50 del19/C797S (nM) 100 μM ATP, 100 μM ATP
[14] = IC50 L858R/C797S (nM) 100 μM ATP, 100 μM ATP
[15] = IC50 del19/T790M/C797S (nM) 100 μM ATP, 100 μM ATP

Chain of EGFR L858R/T790M/C797S (P00533 25-1210 T790M/C797S/L858R): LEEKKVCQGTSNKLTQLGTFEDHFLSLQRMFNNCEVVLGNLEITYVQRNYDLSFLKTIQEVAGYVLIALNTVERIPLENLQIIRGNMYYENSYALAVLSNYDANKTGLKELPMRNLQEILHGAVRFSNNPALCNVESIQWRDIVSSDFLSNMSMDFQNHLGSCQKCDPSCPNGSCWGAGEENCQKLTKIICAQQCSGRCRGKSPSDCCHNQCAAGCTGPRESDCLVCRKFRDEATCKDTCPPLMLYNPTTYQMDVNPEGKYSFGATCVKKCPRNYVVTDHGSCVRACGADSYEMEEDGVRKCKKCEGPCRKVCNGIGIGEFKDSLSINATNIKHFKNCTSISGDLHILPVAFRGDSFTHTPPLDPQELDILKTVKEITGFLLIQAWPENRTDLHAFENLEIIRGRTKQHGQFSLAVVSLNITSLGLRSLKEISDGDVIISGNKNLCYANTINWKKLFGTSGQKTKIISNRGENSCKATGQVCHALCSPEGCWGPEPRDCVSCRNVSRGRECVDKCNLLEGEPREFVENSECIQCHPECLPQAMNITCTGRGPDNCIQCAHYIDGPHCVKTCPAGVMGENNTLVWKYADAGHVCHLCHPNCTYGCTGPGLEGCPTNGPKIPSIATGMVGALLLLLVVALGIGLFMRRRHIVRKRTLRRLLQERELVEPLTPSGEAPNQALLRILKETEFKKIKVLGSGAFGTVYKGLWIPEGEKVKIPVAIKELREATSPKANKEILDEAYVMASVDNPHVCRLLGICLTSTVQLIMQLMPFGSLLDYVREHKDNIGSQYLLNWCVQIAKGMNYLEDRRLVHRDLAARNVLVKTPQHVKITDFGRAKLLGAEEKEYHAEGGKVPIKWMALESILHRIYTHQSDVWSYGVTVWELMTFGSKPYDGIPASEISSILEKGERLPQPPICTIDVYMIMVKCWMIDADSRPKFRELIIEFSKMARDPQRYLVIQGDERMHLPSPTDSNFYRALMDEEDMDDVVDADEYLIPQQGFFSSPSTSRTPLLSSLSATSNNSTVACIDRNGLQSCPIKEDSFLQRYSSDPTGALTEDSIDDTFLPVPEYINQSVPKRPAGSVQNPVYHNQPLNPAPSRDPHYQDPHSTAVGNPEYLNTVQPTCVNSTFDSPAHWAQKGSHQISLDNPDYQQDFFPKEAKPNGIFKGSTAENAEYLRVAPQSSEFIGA

Row | Compound | IC50 [1, 6] [nM] | IC50 ([1]; read-out: IC50 L858R/T790M/C797S (nM) 100 μM ATP, 100 μM ATP) [nM] | IC50 [2, 7] [nM] | IC50 ([2]; read-out: IC50 WT (nM) 100 μM ATP, 100 μM ATP) [nM] | IC50 [3, 8] [nM] | IC50 ([3]; read-out: IC50 del19/C797S (nM) 100 μM ATP, 100 μM ATP) [nM] | IC50 [4, 9] [nM] | IC50 ([4]; read-out: IC50 L858R/C797S (nM) 100 μM ATP, 100 μM ATP) [nM] | IC50 [5, 10] [nM] | IC50 ([5]; read-out: IC50 del19/T790M/C797S (nM) 100 μM ATP, 100 μM ATP) [nM] | IC50 [1, 11] [nM] | IC50 [2, 12] [nM] | IC50 [3, 13] [nM] | IC50 [4, 14] [nM] | IC50 [5, 15] [nM]
1 | CS(=O)(=O)n1cc(-c2nccc(Nc3cc(N[C@H]4CC[C@@](C)(O)CC4)c(-c4ccn(C(F)F)n4)cn3)n2)cn1 [Example 112, (1s,4s)-4-((5-(1-(Difluoromethyl)-1H-pyrazol-3-yl)-2-((2-(1-(methylsulfonyl)-1H-pyrazol-4-yl)pyrimidin-4-yl)amino)pyridin-4-yl)amino)-1-methylcyclohexan-1-ol] | 0.5 | 4.9 | 220 | > 10000 | 34.5 | 75.4 | 34.9 | 60.7 | 1.2 | 2.1 | – | – | – | – | –
2 | CN(C)C[C@H]1CC[C@H](CNc2cc(Nc3ccnc(-c4cnn(S(=O)(=O)C5CC5)c4)n3)ncc2-c2ccn(C(F)F)n2)CC1 [Example 100, N^2-(2-(1-(Cyclopropylsulfonyl)-1H-pyrazol-4-yl)pyrimidin-4-yl)-5-(1-(difluoromethyl)-1H-pyrazol-3-yl)-N^4-(((1r,4r)-4-((dimethylamino)methyl)cyclohexyl)methyl)pyridine-2,4-diamine] | 0.3 | – | 1 | – | 0.5 | – | 0.3 | – | 0.5 | – | 0.5 | 582 | 0.4 | 1.4 | 0.6
3 | O=S(=O)(C1CC1)n1cc(-c2nccc(Nc3cc(N[C@H]4CC[C@@H](CO)CC4)c(-c4ccn(C(F)F)n4)cn3)n2)cn1 [Example 18, ((1s,4s)-4-((2-((2-(1-(Cyclopropylsulfonyl)-1H-pyrazol-4-yl)pyrimidin-4-yl)amino)-5-(1-(difluoromethyl)-1H-pyrazol-3-yl)pyridin-4-yl)amino)cyclohexyl)methanol] | 0.2 | – | 3 | – | 0.9 | – | 1.9 | – | 0.3 | – | 0.6 | > 10000 | 1.4 | 13 | 0.4
4 | CN(C)CC[C@H]1CC[C@@H](Nc2cc(Nc3nc(-c4cnn(S(=O)(=O)C5CC5)c4)ncc3F)ncc2-c2ccn(C(F)F)n2)CC1 [Example 325, N^2-(2-(1-(Cyclopropylsulfonyl)-1H-pyrazol-4-yl)-5-fluoropyrimidin-4-yl)-5-(1-(difluoromethyl)-1H-pyrazol-3-yl)-N^4-((1s,4s)-4-(2-(dimethylamino)ethyl)cyclohexyl)pyridine-2,4-diamine] | 0.1 | – | 1.2 | – | 0.6 | – | 0.3 | – | 0.2 | – | – | – | – | – | –
5 | C[C@]1(O)CC[C@@H](Nc2cc(Nc3ccnc(-c4cnn(S(=O)(=O)N5CC(F)C5)c4)n3)ncc2-c2ccn(C(F)F)n2)CC1 [Example 324, (1s,4s)-4-((5-(1-(Difluoromethyl)-1H-pyrazol-3-yl)-2-((2-(1-((3-fluoroazetidin-1-yl)sulfonyl)-1H-pyrazol-4-yl)pyrimidin-4-yl)amino)pyridin-4-yl)amino)-1-methylcyclohexan-1-ol] | 1.7 | – | 55.5 | – | 66.9 | – | 13.2 | – | 4.6 | – | – | – | – | – | –
6 | CN(CC(F)F)C(=O)[C@H]1CC[C@@H](Nc2cc(Nc3ccnc(-c4cnn(S(=O)(=O)C5CC5)c4)n3)ncc2-c2ccn(C)n2)CC1 [Example 235, (1s,4s)-4-((2-((2-(1-(Cyclopropylsulfonyl)-1H-pyrazol-4-yl)pyrimidin-4-yl)amino)-5-(1-methyl-1H-pyrazol-3-yl)pyridin-4-yl)amino)-N-(2,2-difluoroethyl)-N-methylcyclohexane-1-carboxamide] | 0.1 | – | 1.6 | – | 2.5 | – | 0.3 | – | 0.2 | – | 0.2 | 616 | 1.1 | 7 | 0.2
7 | O=S(=O)(C1CC1)n1cc(-c2nccc(Nc3cc(N[C@H]4CC[C@@H](NCCF)CC4)c(-c4ccn(CC(F)F)n4)cn3)n2)cn1 [Example 242, N^2-(2-(1-(Cyclopropylsulfonyl)-1H-pyrazol-4-yl)pyrimidin-4-yl)-5-(1-(2,2-difluoroethyl)-1H-pyrazol-3-yl)-N^4-((1s,4s)-4-((2-fluoroethyl)amino)cyclohexyl)pyridine-2,4-diamine] | 0.1 | – | 6 | – | 0.4 | – | 1.2 | – | 0.1 | – | 0.2 | 6320 | 0.8 | 20.9 | 0.2
8 | CN(C)C[C@H]1CC[C@@H](Nc2cc(Nc3ccnc(-c4cnn(S(=O)(=O)C5CC5)c4)n3)ncc2-c2cc(C(F)(F)F)n(C)n2)CC1 [Example 256, N^2-(2-(1-(Cyclopropylsulfonyl)-1H-pyrazol-4-yl)pyrimidin-4-yl)-N^4-((1s,4s)-4-((dimethylamino)methyl)cyclohexyl)-5-(1-methyl-5-(trifluoromethyl)-1H-pyrazol-3-yl)pyridine-2,4-diamine] | 0.4 | – | 0.5 | – | 0.8 | – | – | – | 1.4 | – | 0.5 | 123 | 2 | 7.5 | –
9 | O=S(=O)(C1CC1)n1cc(-c2nccc(Nc3cc(N[C@H]4CC[C@@H](NCC(F)F)CC4)c(-c4ccn(C(F)F)n4)cn3)n2)cn1 [Example 23, N^2-(2-(1-(Cyclopropylsulfonyl)-1H-pyrazol-4-yl)pyrimidin-4-yl)-N^4-((1s,4s)-4-((2,2-difluoroethyl)amino)cyclohexyl)-5-(1-(difluoromethyl)-1H-pyrazol-3-yl)pyridine-2,4-diamine] | 0.4 | – | 6.9 | – | 0.8 | – | 1.8 | – | 0.7 | – | 1 | > 10000 | 0.9 | 7.4 | 1.3
10 | O=S(=O)(C1CC1)n1cc(-c2nccc(Nc3cc(NC[C@H]4CC[C@@H](O)C4)c(-c4ccn(C(F)F)n4)cn3)n2)cn1 [Example 119, (1R,3S)-3-(((2-((2-(1-(Cyclopropylsulfonyl)-1H-pyrazol-4-yl)pyrimidin-4-yl)amino)-5-(1-(difluoromethyl)-1H-pyrazol-3-yl)pyridin-4-yl)amino)methyl)cyclopentan-1-ol] | 0.1 | – | 6.1 | – | 0.5 | – | 0.4 | – | 0.4 | – | 0.6 | > 10000 | 0.5 | 15.1 | 0.4
11 | O=S(=O)(C1CC1)n1cc(-c2nccc(Nc3cc(NC4CCC(NCCO)CC4)c(-c4csc(C(F)(F)F)n4)cn3)n2)cn1 (stereo not shown) [Example 97, 2-((4-((2-((2-(1-(Cyclopropylsulfonyl)-1H-pyrazol-4-yl)pyrimidin-4-yl)amino)-5-(2-(trifluoromethyl)thiazol-4-yl)pyridin-4-yl)amino)cyclohexyl)amino)ethan-1-ol] | – | – | – | – | – | – | – | – | – | – | 3.2 | > 10000 | 18 | 160 | 0.7
12 | Cn1nc(-c2cnc(Nc3ccnc(-c4cnn(CC(F)F)c4)n3)cc2NN2CCC(O)CC2)cc1C(F)(F)F [Example 163, 1-((2-((2-(1-(2,2-Difluoroethyl)-1H-pyrazol-4-yl)pyrimidin-4-yl)amino)-5-(1-methyl-5-(trifluoromethyl)-1H-pyrazol-3-yl)pyridin-4-yl)amino)piperidin-4-ol] | 0.9 | – | 737 | – | 55.3 | – | 744 | – | 1.8 | – | – | – | – | – | –
13 | CN(C)CC1CCC(Nc2cc(Nc3ccnc(-c4cnn(S(=O)(=O)C5CC5)c4)n3)ncc2-c2ccn(C3COC3)n2)CC1 (stereo not shown) [Example 284, N^2-(2-(1-(Cyclopropylsulfonyl)-1H-pyrazol-4-yl)pyrimidin-4-yl)-N^4-((1s,4s)-4-((dimethylamino)methyl)cyclohexyl)-5-(1-(oxetan-3-yl)-1H-pyrazol-3-yl)pyridine-2,4-diamine] | 0.1 | – | 0.8 | – | 0.1 | – | 0.1 | – | 0.1 | – | 0.1 | 387 | 0.4 | 0.9 | 0.1
14 | O=S(=O)(C1CC1)n1cc(-c2nccc(Nc3cc(N[C@H]4CCC[C@H](O)C4)c(-c4ccn(C(F)F)n4)cn3)n2)cn1 [Example 21, (1S,3S)-3-((2-((2-(1-(Cyclopropylsulfonyl)-1H-pyrazol-4-yl)pyrimidin-4-yl)amino)-5-(1-(difluoromethyl)-1H-pyrazol-3-yl)pyridin-4-yl)amino)cyclohexan-1-ol] | 0.2 | – | 5.4 | – | 0.3 | – | 0.9 | – | 0.3 | – | 0.9 | 5010 | 0.7 | 8.9 | 1.3
